Where a name gives a salt, the structure may show the parent alone. Read-outs that look alike come from different tables or passages of the source.
Tests used:
[1] = test system: human colon cancer cells (HT-29); experiment: HT-29 subcutaneous xenograft, alone and in combination with 5-FU; format: in vivo, mouse
Protocol: 1×10^6 cells of human colon cancer cells (HT-29) were subcutaneously implanted into right abdomen of female Balb/c nude mice. […] For comparison, 5-FU was intraperitoneally administered to mice in positive control groups at doses of 3, 10, and 30 mg/kg once daily for 12 days. […] On the day following the final administration, the tumor was removed and weighed. […] Percent inhibition of tumor growth was calculated based on the tumor weights in each administration groups versus that in a control group.

[2] = test system: human colon cancer xenograft; conditions: Non-Patent Document 14, cited from earlier work
[3] = test system: human pancreatic cancer PANC-1; conditions: Non-Patent Document 12, cited from earlier work
[4] = test system: pancreatic cancer or colon cancer xenograft; conditions: only observed at a high dose of 200 mg/kg or more; Patent Document 1; cited from earlier work
[5] = Toxicity test through 28-day repeated oral administration to rats; format: in vivo
[6] = Toxicity test through 28-day repeated oral administration to dogs; format: in vivo
[7] = test system: human pancreatic cancer cells (PANC-1); experiment: PANC-1 implanted into pancreas, lethal model, survival rate; format: in vivo, mouse; conditions: gemcitabine hydrochloride 100 mg/kg i.v. on days 7, 10, 14 after implantation; 40 days after administration start (46 days after implantation); female SCID mice (control […])
Protocol: (§1) A small piece (70 to 80 mg) of human pancreatic cancer cells (PANC-1) was implanted into the pancreas of female SCID mice (15 mice for each group). […] In another group of mice, on seven, 10, and 14 days after the implantation, gemcitabine hydrochloride (Gemzar Injection®) as a positive control was intravenously injected at a dose of 100 mg/kg.

[8] = test system: human pancreatic cancer cells (PANC-1); experiment: PANC-1 implanted into pancreas, lethal model, survival with gemcitabine combination (Table 1); format: in vivo, mouse; conditions: female SCID mice, compound A1 100 mg/kg oral once daily from day 7, GEM 100 mg/kg i.v. days 7, 10, 14
Protocol: as §1, with “after” for “after the”, “Injection®)” for “Injection®) as a positive control”, “administered” for “injected”

[9] = test system: human pancreatic cancer cells (PAN1VC); experiment: PAN1VC implanted into pancreas, tumor weight, alone and with gemcitabine; format: in vivo, mouse; conditions: male nude mice
Protocol: 1×10^6 cells of human pancreatic cancer cells (PAN1VC) were implanted into the pancreas of male nude mice. […] Percent inhibition of tumor growth was calculated based on the tumor weights in each administration groups versus that in a control group.

[10] = test system: human colon cancer cells (HT-29); experiment: HT-29 subcutaneous xenograft, tumor weight; format: in vivo, mouse; conditions: female Balb/c nude mice
Protocol: (§2) 1×10^6 cells of human colon cancer cells (HT-29) were subcutaneously implanted into right abdomen of female Balb/c nude mice. […] On the day following the final administration, the tumor was removed and weighed. In a control group, vehicle was orally administered to mice, and the tumor weight was measured in similar manner to that described above. Percent inhibition of tumor growth was calculated based on the tumor weights in each administration groups versus that in a control group.

[11] = test system: human colon cancer cells (C170HM2); experiment: C170HM2 intraperitoneal model, tumor metastasis to the liver; format: in vivo, mouse; conditions: 40 days after implantation, male nude mice
Protocol: 1.5×10^6 cells of human colon cancer cells (C170HM2) were intraperitoneally injected into male nude mice. […] Meanwhile, in a positive control group, the combination of 5-fluorouracil (hereinafter called “5-FU”) and leucovorin were intravenously administered (for each compound, 25 mg/kg/injection) one, four, seven, and 10 days after tumor implantation. Forty days after implantation of C170HM2 tumor, the weight of tumor-metastasized liver was measured.

[12] = test system: human pancreatic cancer cells (MIAPaCa 2); experiment: MIAPaCa 2 subcutaneous xenograft, tumor weight; format: in vivo, mouse; conditions: female Balb/c nude mice
Protocol: as §2, with “3×10^6” for “1×10^6”, “pancreatic” for “colon”, “(MIAPaCa 2)” for “(HT-29)”, “For comparison,” for “In a control group,”, “mice in a control group,” for “mice,”, “group” for “groups”

[13] = rats, 1,000 mg/kg for 28 consecutive days (summary statement)
[14] = dogs, 1,000 mg/kg for 28 consecutive days (summary statement)
[15] = 30, 100, 300 or 1,000 mg/kg oral for 28 days, male and female SD rats, any group
[16] = 30, 100, 300 or 1,000 mg/kg oral for 28 days, male and female beagle dogs, any group

Compound: O=c1[nH]cc(F)c(=O)[nH]1 [5-FU, 5-fluorouracil]
- Percent inhibition of tumor growth (tumor weight vs control) ([1]; 5-FU alone, 3 mg/kg i.p. once daily for 12 days): 24%
- Percent inhibition of tumor growth (tumor weight vs control) ([1]; 5-FU alone, 10 mg/kg i.p. once daily for 12 days): 30%
- Percent inhibition of tumor growth (tumor weight vs control) ([1]; 5-FU alone, 30 mg/kg i.p. once daily for 12 days): 58%

Compound: C[C@](Cc1c[nH]c2ccccc12)(NC(=O)OC1[C@H]2C[C@@H]3C[C@@H](C[C@H]1C3)C2)C(=O)NC[C@H](NC(=O)CCC(=O)O)c1ccccc1 (some centres unmarked) [CI-988]
- Cell growth suppressive effect ([2]; oral 25 mg/kg, without non-physiological gastrin stimulation): exhibits cell growth suppressive effect
- Cell growth suppressive effect ([2]; oral 50 mg/kg): exhibits no cell growth suppressive effect

Compound: Cc1cccc(NC(=O)N[C@@H]2N=C(c3ccccc3)c3ccccc3N(C)C2=O)c1 [L-365,260]
- Gastrin-induced tumor growth ([3]; with gastrin stimulation): suppresses gastrin-induced tumor growth
- Tumor growth without stimulation by gastrin ([3]; without gastrin stimulation): does not suppress tumor growth

Compound: CNc1cccc(NC(=O)N[C@@H]2N=C(c3ccccn3)c3ccccc3N(CC(=O)C(C)(C)C)C2=O)c1 [YF476]
- Tumor-shrinking effect [4]: exhibits tumor-shrinking effect

Compound: CC(C)(C)C(=O)CN1C(=O)[C@H](NC(=O)Nc2cccc(C(=O)O)c2)CN(C2CCCCC2)c2ccccc21 [compound A, (R)-(−)-3-[3-(1-tert-butylcarbonylmethyl-2-oxo-5-cyclohexyl-1,3,4,5-tetrahydro-2H-1,5-benzodiazepin-3-yl)ureido]benzoic acid]
- Abnormality in body weight, feed intake, ophthalmological test, urine test, organ weight, autopsy finding, histopathological test [5, 13]: no abnormality was found
- Deaths [5, 13]: no deaths were observed
- Abnormality in body weight, feed intake, ophthalmological test, urine test, organ weight, autopsy finding, histopathological test [6, 14]: no abnormality was found
- Deaths [6, 14]: no deaths were observed

Compound: Nc1ccn([C@@H]2O[C@H](CO)[C@@H](O)C2(F)F)c(=O)n1 [gemcitabine hydrochloride]
- Survival rate [7]: 93.3%
- Survival rate at 60 days after initiation of administration (66 days after implantation) ([8]; alone or combined (control 0)): 0%
- Median survival time ([8]; alone or combined (control 39)): 48 days
- Survival rate at 50 days after initiation of administration (56 days after implantation) ([8]; alone or combined (control 40)): 20%
- Average survival time ([8]; alone or combined (control 43)): 46.9 days
- Days of death of the last individual ([8]; alone or combined (control 56)): 54 days
- Percent inhibition of tumor growth (tumor weight vs control) ([9]; gemcitabine hydrochloride alone, 5 mg/kg i.v. on days 1, 3, 6 after implantation): 32%

Compound: calcium (R)-(−)-3-[3-(1-tert-butylcarbonylmethyl-2-oxo-5-cyclohexyl-1,3,4,5-tetrahydro-2H-1,5-benzodiazepin-3-yl)ureido]benzoate [compound A1]
- Percent inhibition of tumor growth (tumor weight vs control) ([10]; 30 mg/kg oral once daily for 17 days from 4 days after implantation): 44%
- Percent inhibition of tumor growth (tumor weight vs control) ([10]; 100 mg/kg oral once daily for 17 days from 4 days after implantation): 50%
- Inhibition of tumor metastasis to the liver (weight of tumor-metastasized liver) ([11]; 3 mg/kg oral once daily): 73%
- Inhibition of tumor metastasis to the liver (weight of tumor-metastasized liver) ([11]; 30 mg/kg oral once daily): 81%
- Abnormality in body weight, feed intake, ophthalmological test, urine test, organ weight, autopsy finding, histopathological test [5, 15]: no abnormality was found
- Deaths [5, 15]: no deaths were observed
- Abnormality in body weight, feed intake, ophthalmological test, electrocardiogram, blood pressure, urine test, hematological test, blood biochemical test, organ weight, autopsy finding [6, 16]: no abnormality was found
- Deaths [6, 16]: no deaths were observed
- Percent inhibition of tumor growth (tumor weight vs control) ([9]; compound A1 alone, 30 mg/kg oral once daily for 36 days): 19%
- Percent inhibition of tumor growth (tumor weight vs control) ([9]; compound A1 alone, 100 mg/kg oral once daily for 36 days): 23%
- Percent inhibition of tumor growth (tumor weight vs control) ([1]; compound A1 alone, 30 mg/kg oral once daily for 12 days from 10 days after implantation): 34%
- Percent inhibition of tumor growth (tumor weight vs control) ([12]; 30 mg/kg oral once daily for 21 days): 40%
- Percent inhibition of tumor growth (tumor weight vs control) ([12]; 100 mg/kg oral once daily for 21 days): 42%

Source: US20170151256A1, “ANTITUMOR AGENT” (ZERIA PHARMACEUTICAL CO., LTD., priority 2005, published 2017)
